Results reported in US6468998B1, “Pyrrolidine compounds and medicinal utilization thereof” (Mitsubishi Pharma Corporation, priority 1998, dated 2002).
Counter-ions that a name gives are not always drawn.

| Structure (SMILES) | melting point |
| --- | --- |
| CN(C(=O)C12CC3CC(CC(C3)C1)C2)[C@H]1CCN(CCc2ccc(F)cc2)C1 (as salt: hydrochloride) (hydrate or solvate) [Example 56, (S)-N-methyl-N-(1-(2-(4-fluorophenyl)ethyl)pyrrolidin-3-yl)-1-adamantanecarboxamide] | 253 to 254 °C |
| CN(C(=O)C12CC3CC(CC(C3)C1)C2)[C@@H]1CCN(CCc2ccc(F)cc2)C1 (as salt: hydrochloride) (hydrate or solvate) [Example 68, (R)-N-methyl-N-(1-(2-(4-fluorophenyl)ethyl)pyrrolidin-3-yl)-1-adamantanecarboxamide] | 264 to 265 °C |
| Cc1ccccc1C(C(=O)N[C@H]1CCN(CCc2ccc(F)cc2)C1)c1ccccc1C [Example 75, (S)-2,2-bis(2-methylphenyl)-N-(1-(2-(4-fluorophenyl)ethyl)pyrrolidin-3-yl)acetamide] | 108 to 110 °C |
| CN(C(=O)C12CC3CC(CC(C3)C1)C2)[C@H]1CCN(CCc2ccccc2F)C1 (as salt: hydrochloride) [Example 66, (S)-N-methyl-N-(1-(2-(2-fluorophenyl)ethyl)pyrrolidin-3-yl)-1-adamantanecarboxamide] | 241 to 242 °C |
| CN(C(=O)C12CC3CC(CC(C3)C1)C2)[C@H]1CCN(CCc2cccc(F)c2)C1 (as salt: hydrochloride) (hydrate or solvate) [Example 65, (S)-N-methyl-N-(1-(2-(3-fluorophenyl)ethyl)pyrrolidin-3-yl)-1-adamantanecarboxamide] | 252 to 253 °C |
| O=C(N[C@H]1CCN(CCc2ccc(F)cc2)C1)C(C1CCCCC1)C1CCCCC1 [Example 26, (S)-N-(1-(2-(4-fluorophenyl)ethyl)pyrrolidin-3-yl)dicyclohexylacetamide] | 122 to 124 °C |
| O=C(N[C@H]1CCN(CCc2ccc(F)cc2)C1)N(C1CCCCC1)C1CCCCC1 [Example 48, (S)-1,1-dicyclohexyl-3-(1-(2-(4-fluorophenyl)ethyl)pyrrolidin-3-yl)urea] | 97 to 98 °C |
| O=C(NC1CCN(CCc2ccc(F)cc2)C1)N1CC2CC3CC1C[C@@H](C3)C2 (stereo partly drawn) (as salt: hydrochloride) (hydrate or solvate) [Example 69, (S)-N-(1-(2-(4-fluorophenyl)ethyl)pyrrolidin-3-yl)-(4-azatricyclo[4.3.1.1(3,8)]undecan-4-yl)carboxamide] | 110 to 113 °C (dec.) |
| O=C(N[C@H]1CCN(CCc2ccc(F)cc2)C1)C(c1ccccc1F)c1ccccc1F [Example 74, (S)-2,2-bis(2-fluorophenyl)-N-(1-(2-(4-fluorophenyl)ethyl)pyrrolidin-3-yl)acetamide] | 107 to 108 °C |
| O=C(N[C@H]1CCN(CCc2ccc(F)cc2)C1)C(c1ccccc1)c1ccccc1 (as salt: oxalate) (hydrate or solvate) [Example 24, (S)-N-(1-(2-(4-fluorophenyl)ethyl)pyrrolidin-3-yl)diphenylacetamide] | 156 to 158 °C |
| O=C(N[C@H]1CCN(CCc2ccc(F)cc2)C1)C1=c2ccccc2=CC=C2CC=CC=C21 [Example 36, (S)-N-(1-(2-(4-fluorophenyl)ethyl)pyrrolidin-3-yl)dibenzo[a,d]cycloheptene-5-carboxamide] | 127 to 128 °C |
| O=C(N[C@H]1CCN(CCc2ccc(F)cc2)C1)n1c2ccccc2c2ccccc21 [Example 72, (S)-N-(1-(2-(4-fluorophenyl)ethyl)pyrrolidin-3-yl)carbazole-9-carboxamide] | 107 to 108 °C |
| O=C(N[C@H]1CCN(CCc2ccccc2)C1)C(c1ccccc1)c1ccccc1 (as salt: oxalate) [Example 23, (S)-N-(1-(2-phenylethyl)pyrrolidin-3-yl)diphenylacetamide] | 191 to 192 °C |
| O=C(Cc1ccccc1C1CCCC1)N[C@H]1CCN(CCc2ccccc2)C1 [Example 27, N-((S)-1-(2-phenylethyl)pyrrolidin-3-yl)-2-cyclopentylphenylacetamide] | 117 to 119 °C |
| O=C(N[C@H]1CCN(CCc2ccc(F)cc2)C1)C(c1cccs1)c1cccs1 [Example 73, (S)-2,2-di(2-thienyl)-N-(1-(2-(4-fluorophenyl)ethyl)pyrrolidin-3-yl)acetamide] | 96 to 98 °C |

Now from value to compound:

| melting point | Structure (SMILES) |
| --- | --- |
| 117 to 119 °C | O=C(N[C@H]1CCN(CCCc2ccc(Cl)cc2)C1)C12CC3CC(CC(C3)C1)C2 [Example 16, (S)-N-(1-(3-(4-chlorophenyl)propyl)pyrrolidin-3-yl)-1-adamantanecarboxamide] |
| 119 to 121 °C | O=C(N[C@H]1CCN(CCc2ccccc2)C1)C12CC3CC(CC(C3)C1)C2 [Example 1, (S)-N-(1-(2-phenylethyl)pyrrolidin-3-yl)-1-adamantanecarboxamide] |
| 104 to 105 °C | N#Cc1ccc(CCN2CC[C@H](NC(=O)C34CC5CC(CC(C5)C3)C4)C2)cc1 [Example 6, (S)-N-(1-(2-(4-cyanophenyl)ethyl)pyrrolidin-3-yl)-1-adamantanecarboxamide] |
| 127 to 128 °C | O=C(N[C@H]1CCN(CCc2ccccc2C(F)(F)F)C1)C12CC3CC(CC(C3)C1)C2 (as salt: hydrochloride) (hydrate or solvate) [Example 12, (S)-N-(1-(2-(2-trifluoromethylphenyl)ethyl)pyrrolidin-3-yl)-1-adamantanecarboxamide] |
| 278 to 279 °C | O=C(N[C@H]1CCN(C2Cc3ccccc3C2)C1)C12CC3CC(CC(C3)C1)C2 (as salt: hydrochloride) (hydrate or solvate) [Example 22, (S)-N-(1-(2,3-dihydroinden-2-yl)pyrrolidin-3-yl)-1-adamantanecarboxamide] |
| 139 to 141 °C | O=C(N[C@H]1CCN(C[C@H](O)c2ccccc2)C1)C12CC3CC(CC(C3)C1)C2 (as salt: hydrochloride) (hydrate or solvate) [Example 70, (S)-N-(1-((R)-2-hydroxy-2-phenylethyl)pyrrolidin-3-yl)-1-adamantanecarboxamide] |
| 81 to 83 °C | COc1ccc(CCN2CC[C@H](NC(=O)C34CC5CC(CC(C5)C3)C4)C2)cc1 [Example 4, (S)-N-(1-(2-(4-methoxyphenyl)ethyl)pyrrolidin-3-yl)-1-adamantanecarboxamide] |
| 82 to 84 °C | O=C(N[C@H]1CCN(CCCCc2ccccc2)C1)C12CC3CC(CC(C3)C1)C2 [Example 17, (S)-N-(1-(4-phenylbutyl)pyrrolidin-3-yl)-1-adamantanecarboxamide] |
| 149 to 151 °C | O=C(N[C@H]1CCN(C[C@@H](O)c2ccccc2)C1)C12CC3CC(CC(C3)C1)C2 (as salt: hydrochloride) (hydrate or solvate) [Example 71, (S)-N-(1-((S)-2-hydroxy-2-phenylethyl)pyrrolidin-3-yl)-1-adamantanecarboxamide] |
| 214 to 215 °C | O=C(N[C@H]1CCN(CCc2ccc(C(F)(F)F)cc2)C1)C12CC3CC(CC(C3)C1)C2 (as salt: hydrochloride) (hydrate or solvate) [Example 5, (S)-N-(1-(2-(4-trifluoromethylphenyl)ethyl)pyrrolidin-3-yl)-1-adamantanecarboxamide] |
| 130 to 132 °C | O=C(N[C@H]1CCN(Cc2ccccc2)C1)C12CC3CC(CC(C3)C1)C2 [Example 13, (S)-N-(1-benzylpyrrolidin-3-yl)-1-adamantanecarboxamide] |
| 118 to 120 °C | O=C(N[C@H]1CCN(CCCc2ccccc2)C1)C12CC3CC(CC(C3)C1)C2 [Example 14, (S)-N-(1-(3-phenylpropyl)pyrrolidin-3-yl)-1-adamantanecarboxamide] |
| 87 to 89 °C | O=C(N[C@H]1CCN(CCc2cccc(F)c2)C1)C12CC3CC(CC(C3)C1)C2 [Example 9, (S)-N-(1-(2-(3-fluorophenyl)ethyl)pyrrolidin-3-yl)-1-adamantanecarboxamide] |
| 114 to 115 °C | O=C(N[C@H]1CCN(CCCc2ccc(F)cc2)C1)C12CC3CC(CC(C3)C1)C2 [Example 15, (S)-N-(1-(3-(4-fluorophenyl)propyl)pyrrolidin-3-yl)-1-adamantanecarboxamide] |
| 106 to 108 °C | O=C(N[C@H]1CCN(CCc2ccccc2F)C1)C12CC3CC(CC(C3)C1)C2 [Example 10, (S)-N-(1-(2-(2-fluorophenyl)ethyl)pyrrolidin-3-yl)-1-adamantanecarboxamide] |
| 140 to 142 °C | O=C(N[C@H]1CCN(CC2CCCc3ccccc32)C1)C12CC3CC(CC(C3)C1)C2 (stereo partly drawn) (as salt: hydrochloride) (hydrate or solvate) [Example 20, (S)-N-(1-((1,2,3,4-tetrahydronaphthalen-1-yl)methyl)pyrrolidin-3-yl)-1-adamantanecarboxamide] |
| 118 to 120 °C | O=C(N[C@@H]1CCN(CCc2ccccc2)C1)C12CC3CC(CC(C3)C1)C2 [Example 63, (R)-N-(1-(2-phenylethyl)pyrrolidin-3-yl)-1-adamantanecarboxamide] |
| 94 to 95 °C | O=C(N[C@H]1CCN(CCc2ccc(Cl)cc2)C1)C12CC3CC(CC(C3)C1)C2 [Example 3, (S)-N-(1-(2-(4-chlorophenyl)ethyl)pyrrolidin-3-yl)-1-adamantanecarboxamide] |
| 201 to 202 °C | O=C(N[C@H]1CCN(CCc2ccccc2)C1)NC12CC3CC(CC(C3)C1)C2 (as salt: hydrochloride) (hydrate or solvate) [Example 51, (S)-1-(1-adamantyl)-3-(1-(2-phenylethyl)pyrrolidin-3-yl)urea] |
| 241 to 243 °C | O=C(N[C@H]1CCN(CC2Cc3ccccc3C2)C1)C12CC3CC(CC(C3)C1)C2 (as salt: hydrochloride) (hydrate or solvate) [Example 18, (S)-N-(1-((2,3-dihydroinden-2-yl)methyl)pyrrolidin-3-yl)-1-adamantanecarboxamide] |
| 160 to 163 °C | O=C(N[C@H]1CCN(CCc2cccc(C(F)(F)F)c2)C1)C12CC3CC(CC(C3)C1)C2 (as salt: hydrochloride) (hydrate or solvate) [Example 11, (S)-N-(1-(2-(3-trifluoromethylphenyl)ethyl)pyrrolidin-3-yl)-1-adamantanecarboxamide] |
